# Target: T1, B1R receptor of the rat (rB1R) (Rattus norvegicus, UniProt P97583)
# T1 construct: expressed in transfected cells; host or cells: CHO K1 cells
# T1 sequence (P97583 1-337): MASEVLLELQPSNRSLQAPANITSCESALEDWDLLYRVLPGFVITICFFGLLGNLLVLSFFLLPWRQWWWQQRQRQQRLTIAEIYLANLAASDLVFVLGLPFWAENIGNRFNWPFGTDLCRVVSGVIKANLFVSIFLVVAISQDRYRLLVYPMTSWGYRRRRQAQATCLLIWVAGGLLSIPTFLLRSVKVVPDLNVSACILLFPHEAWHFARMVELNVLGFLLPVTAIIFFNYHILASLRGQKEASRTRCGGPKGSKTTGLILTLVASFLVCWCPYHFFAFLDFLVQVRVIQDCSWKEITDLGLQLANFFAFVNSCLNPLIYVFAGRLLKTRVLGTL
# Test: Functional investigation on the bradykinin 1 receptor (B1R), FLIPR Ca2+ assay, rB1R cells
# Type: cell-based
# Settings: 10 μM test substance; CHO K1 cells with rat B1R; agonist Des-Arg9 bradykinin; % of maximum achievable inhibition; 10 µM
# Summary of the method: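 Cells plated at 20,000-35,000/well, incubated overnight at 37° C, loaded with Fluo-4 (2.13 μM, 60 min, 37° C, or 2.5 μM in buffer A), then read in FLIPR (λex 488, λem 540 nm). Agonist: Lys-Des-[MUT] bradykinin (0.5 nM) or Des-[MUT] bradykinin (100 nM). IC50 from % inhibition versus maximum, n=2-3, N>=2.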
row,"B1R antagonism, rat [10 μM] % inhibition [%]",SMILES
1,78,"COc1cc(C)c(S(=O)(=O)Nc2ccc3ccn(CC(=O)N4CCC(CCN5CCCC5)CC4)c3c2)c(C)c1 [Compound G-01, 4-Methoxy-2,6-dimethyl-N-[1-[2-oxo-2-[4-(2-pyrrolidin-1-yl-ethyl)-piperidin-1-yl]-ethyl]-1H-indol-6-yl]-benzenesulfonic acid amide]"
2,96,"COc1cc(C)c(S(=O)(=O)Nc2cccc3ccn(CC(=O)N4CCC5(CC4)CCN(c4ccncc4)CC5)c23)c(C)c1 [Compound G-05, 4-Methoxy-2,6-dimethyl-N-[1-[2-oxo-2-(9-pyridin-4-yl-3,9-diazaspiro[5.5]undecan-3-yl)-ethyl]-1H-indol-7-yl]-benzenesulfonic acid amide]"
3,76,"O=C(CCn1ccc2cccc(N3Cc4cccc(Cl)c4C3=O)c21)N1CCC2(CC1)CCN(c1ccncc1)CC2 [Compound G-10, 7-Chloro-2-(1-(3-oxo-3-(9-(pyridin-4-yl)-3,9-diazaspiro[5.5]undecan-3-yl)propyl)-1H-indol-7-yl)isoindolin-1-one]"

# Same assay, conditions: CHO-K1, 10 μM test substance; CHO K1 cells with rat B1R; agonist Des-Arg9 bradykinin; % of maximum achievable inhibition; read-out: B1R antagonism, rat [10 μM] % inhibition
row,SMILES,inhibition at 10 µM [%]
1,"COc1cc(C)c(S(=O)(=O)Nc2cccc3ccn(CC(=O)N4CCC(CCN5CCCC5)CC4)c23)c(C)c1 [Compound G-02, 4-Methoxy-2,6-dimethyl-N-[1-[2-oxo-2-[4-(2-pyrrolidin-1-yl-ethyl)-piperidin-1-yl]-ethyl]-1H-indol-7-yl]-benzenesulfonic acid amide]",100
2,"COc1cc(C)c(S(=O)(=O)Nc2cccc3ccn(CC(=O)N4CCC5(CC4)C(=O)NCN5c4ccccc4)c23)c(C)c1 [Compound G-04, 4-Methoxy-2,6-dimethyl-N-[1-[2-oxo-2-(1-oxo-4-phenyl-2,4,8-triazaspiro[4.5]decan-8-yl)-ethyl]-1H-indol-7-yl]-benzenesulfonic acid amide]",62
3,"COc1cc(C)c(S(=O)(=O)Nc2cccc3ccn(CC(=O)N4CCC(OCCN5CCCC5)(c5cccnc5)CC4)c23)c(C)c1 [Compound G-06, 4-Methoxy-2,6-dimethyl-N-[1-[2-oxo-2-[4-pyridin-3-yl-4-(2-pyrrolidin-1-yl-ethoxy)-piperidin-1-yl]-ethyl]-1H-indol-7-yl]-benzenesulfonic acid amide]",70

# Second part, the molecule after the results:
row,inhibition at 10 µM [%],SMILES
1,100,"O=C(CCn1ccc2ccc(N3Cc4cccc(Cl)c4C3=O)cc21)N1CCC2(CC1)CCN(c1ccncc1)CC2 [Compound G-07, 7-Chloro-2-[1-[3-oxo-3-(9-pyridin-4-yl-3,9-diazaspiro[5.5]undecan-3-yl)-propyl]-1H-indol-6-yl]-2,3-dihydro-isoindol-1-one]"
2,97,"O=C(Cn1ccc2ccc(N3Cc4cccc(Cl)c4C3=O)cc21)N1CCC2(CC1)CCN(c1ccncc1)CC2 [Compound G-08, 7-Chloro-2-[1-[2-oxo-2-(9-pyridin-4-yl-3,9-diazaspiro[5.5]undecan-3-yl)-ethyl]-1H-indol-6-yl]-2,3-dihydro-isoindol-1-one]"
3,-21,"O=C(Cn1ccc2cccc(N3Cc4cccc(Cl)c4C3=O)c21)N1CCC2(CC1)CCN(c1ccncc1)CC2 [Compound G-11, 7-Chloro-2-(1-(2-oxo-2-(9-(pyridin-4-yl)-3,9-diazaspiro[5.5]undecan-3-yl)ethyl)-1H-indol-7-yl)isoindolin-1-one]"
4,92,"O=C(Cn1ccc2ccc(N3Cc4cccc(Cl)c4C3=O)cc21)N1CCC2(CCN(c3ccncc3)CC2)C1 [Compound G-12, 7-Chloro-2-(1-(2-oxo-2-(8-(pyridin-4-yl)-2,8-diazaspiro[4.5]decan-2-yl)ethyl)-1H-indol-6-yl)isoindolin-1-one]"
5,96,"COc1cc(C)c(S(=O)(=O)Nc2cccc3ccn(CC(=O)N4CCC5(CC4)CC(c4ccncc4)=NO5)c23)c(C)c1 [Compound G-13, 4-Methoxy-2,6-dimethyl-N-(1-(2-oxo-2-(3-(pyridin-4-yl)-1-oxa-2,8-diazaspiro[4.5]dec-2-en-8-yl)ethyl)-1H-indol-7-yl)benzenesulfonic acid amide]"
